For data set [1], the target named is T1, Palmitoleoyl-protein carboxylesterase NOTUM (Homo sapiens, UniProt Q6P988).
T1 sequence (Q6P988 whole entry): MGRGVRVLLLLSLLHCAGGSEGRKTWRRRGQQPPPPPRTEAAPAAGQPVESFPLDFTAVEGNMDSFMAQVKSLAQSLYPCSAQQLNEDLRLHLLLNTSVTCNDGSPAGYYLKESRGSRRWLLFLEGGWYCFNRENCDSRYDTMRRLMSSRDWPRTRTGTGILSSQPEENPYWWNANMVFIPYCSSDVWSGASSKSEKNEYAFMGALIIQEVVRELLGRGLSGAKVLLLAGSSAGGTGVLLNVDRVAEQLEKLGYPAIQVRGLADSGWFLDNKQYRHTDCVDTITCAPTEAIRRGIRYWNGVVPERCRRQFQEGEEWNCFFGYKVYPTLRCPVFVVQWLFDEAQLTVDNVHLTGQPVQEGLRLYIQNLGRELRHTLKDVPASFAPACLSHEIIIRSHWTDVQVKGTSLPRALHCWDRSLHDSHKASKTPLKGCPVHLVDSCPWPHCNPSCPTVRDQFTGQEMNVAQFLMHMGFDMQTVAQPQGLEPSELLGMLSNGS
Kind of data set: Binding affinity to glycosylated Notum 1 (unknown origin) assessed as maximum change in melting temperature at 1 mM by SYPRO orange dye based thermal shift assay. Particulars: 1000 µM.

In data set [2] the target is T1, Palmitoleoyl-protein carboxylesterase NOTUM. Kind of data set: Binding affinity to glycosylated Notum 1 (unknown origin) assessed as change in melting temperature at 30 uM by SYPRO orange dye based thermal shift assay.
Data set [3] has the same target. Kind of data set: Inhibition of Notum 1 (unknown origin) expressed in HEK293 cells harbouring TCF/LEF luciferase reporter gene assessed as modulation of Wnt/beta-catenin signalling pathway preincubated with recombinant Wnt-3A for 1 hr followed by addition to reporter cell plate incubated overnight by luminescence based microplate reader analysis.
Data set [4] has the same target. Kind of data set: Binding affinity to glycosylated Notum 1 (unknown origin) assessed as change in melting temperature at 8 uM by SYPRO orange dye based thermal shift assay.

As for `O=C(O)CCC(=O)N1CCc2ccccc21`, the deltaTm was determined as 2.5 °C in data set [1] and 1 °C in data set [2].

As for `O=C(CCC(=O)N1CCc2ccccc21)OCC(F)F`, the EC50 in data set [3] turned out to be 0.3 µM.

`COC(=O)CCC(=O)N1CCc2ccccc21`: the figures for the deltaTm in data set [1], in data set [2] and in data set [4] were 10 °C, 5 °C and 2 °C, respectively.

These data come from ChEMBL document CHEMBL5029153, “Structural Insights into Notum Covalent Inhibition” (J Med Chem, 2021).
